Results taken from patent US8772237B2, “Compositions and methods for counteracting effects of reactive oxygen species and free radicals” (Ischemix, Inc., priority 1999, dated 2014).
Ends that are not written are not given here.

Tests used:
[1] = test system: transcription factor AP-1; test: Electrophoretic mobility shift assay (EMSA) for AP-1 activation in primary rat neurons / cortical cultures; assay type: cell-based
Procedure: Nuclear extracts for electrophoretic mobility shift assays (EMSAs) were prepared as described previously (Adams et al., J. Leukocyte Biol., 62: 865-873 (1997)) using 1.0-2.0×10^7 cells per sample. All buffers were freshly supplemented with dithiothreitol (DTT, 0.5 mM), protease inhibitors: PMSF (0.5 mM), chymostatin, peptstatin-A, aprotinin, antipain, leupeptin (each at 1 μg/ml), and phosphatase inhibitors: NaF (10 mM), ZnCl2 (1 mM), sodium orthovanadate (1 mM), and sodium pyrophosphate (5 mM). Aliquots of the final dialyzates were stored at −80° C. and discarded after use.
AP-1 transcription factor activation was assayed using an electrophoretic mobility shift assay (EMSA), as described by Adams et al., J. Leukoc. Biol., 62:865-873 (1997)). Cultures of primary rat neurons (Cornell-Bell et al., Cell Calcium, 12: 185-204 (1991)) were stimulated for 3 hours with various concentrations (0, 1, 10, 100 ng/ml) of peptide CMX-9236. Nuclear extracts prepared as described above were separated by gel electophoresis on non-denaturing gels and subjected to the EMSA procedure. This EMSA used an AP-1 synthetic duplex probe (Angel, P., 1987, Cell 49:729-739) having the sequence 5′-[…] (SEQ ID NO:33) and its antisense copy (complement strand), which were end-labeled with P^32 using polynucleotide kinase and (γ-P^32)-ATP. For the EMSA reaction, the labeled probe (0.5 pmol) was mixed with 3 μg of nuclear extract protein in a solution containing 10 mM Tris-HCl, pH 7.5, 50 mM NaCl, 1 mM EDTA, 1 mM dithiothreitol, 5% glycerol, 0.02% β-mercaptoethanol, and 1 μg of poly-dI/dC (Pharmacia). Reaction mixtures were incubated at 25° C. for 20 minutes to allow complete complex formation by the duplex with its appropriate AP-1 protein. The mixture was then electrophoresed under non-denaturing conditions through 4% polyacrylamide gels in 0.5×TBE buffer (45 mM Trisma base, 45 mM boric acid, 1 mM EDTA). The gels were dried on 3 mm paper. Bands were visualized by autoradiography at −80° C. with one intensifying screen and quantified by laser densitometry. The upregulation of AP-1 and the activation and upregulation process of AP-1 was compared to control cultures.
Primary cortical cell cultures were grown to confluence and used in in vitro cultures for determining the effects of various representative peptide compounds on upregulation of AP-1. […] Extracts were prepared from the nuclei isolated from the primary culture homogenates, purified, and analyzed for the presence of specific transcription factors using the electrophoretic mobility shift assay (EMSA) method. The binding of ^32P-labeled duplex DNA probes specific for activator protein-1 (AP-1) or nuclear factor κB (NF-κB) was analyzed and quantified by autoradiography. After a 3-hour incubation of the cultures with 1 ng/ml of the peptide CMX-9236 there was a 15-fold increase of AP-1 relative to […] control cultures. […] Thus, a small peptide compound that is less than 20 amino acids long can simulate the properties of large growth factors such as NGF and BDNF, which exist as dimers of protein chains with molecular weights of 13,259 and 13,500, respectively.

[2] = test system: middle cerebral artery (MCA) permanent occlusion stroke model; test: Permanent MCA 24-hour occlusion stroke model; assay type: in vivo, Sprague-Dawley rats; details: rat, in vivo
Procedure: The in vivo neuroprotective effects of CMX-9236 were investigated in both temporary and permanent occlusion stroke models in Sprague-Dawley rats using an intraluminal suture of the middle cerebral artery (MCA) occlusion method (Zea Longa et al., Stroke, 20: 84 (1989)). Briefly, a 4-0 silicone-coated suture was inserted through the right common carotid artery to block the MCA orifice. In the temporary model, CMX-9236 (6.2 mg/kg/hr) or vehicle was administered via the femoral vein at 30 minutes after the start of a 2-hour occlusion for a 4-hour continuous infusion; the rats were then reperfused by withdrawing the suture at […] after the MCA occlusion. All experiments were performed in a blinded and randomized manner, and rectal temperature was maintained at 37° C. The animals were sacrificed, and their brains were removed, sectioned into six 2-mm-thick coronal slices and stained with 2,3,5-triphenyltetrazolium chloride solution (Bederson et al., Stroke, 17:1304 (1986)) to visualize the extent of brain damage for the calculation of the corrected hemispheric infarct volumes (Nagasawa and Kogure, Stroke, 20:1037 (1989); Li et al., J. Cereb. Blood Flow Metab., 17:1132 (1997)). […] This represents a significant reduction of infarct size (35±5%, p=0.01, student t-test) for the CMX-9236-treated group in the temporary occlusion model. There was also a 58+11% improvement in the neurological scoring (Minematsu et al., Neurology, 42:235 (1992)) for the peptide-treated group versus controls at the end of 24 hours.
In the permanent occlusion stroke model, the blood flow to the MCA territory was blocked for the total 24-hour period. A continuous i.v. infusion (0.5 ml/hr) of the CMX-9236 peptide (2.04 mg/kg/hr) or vehicle was initiated at 30 minutes after occlusion for 6 hours, followed by a bolus i.v. infusion of CMX-9236 (4.0 mg/kg in 0.5 ml delivered over 10 minutes) or vehicle at 12 hours after occlusion. The corrected infarct volumes were 127.5±18 mm^3 versus 216±18 mm^3 for drug-treated animals and controls, respectively. This represents a significant decrease (41±5%, p=0.003, student t-test) in infarct size for the drug-treated group as compared to the vehicle-treated control group (n=10 per group) in the permanent model, indicating a substantial rescue of brain tissue. These findings indicate that CMX-9236 has neuroprotective properties post-trauma in vivo, reducing the brain damage generated by cerebral ischemia.

[3] = test system: superoxide dismutase-1 (SOD-1) mRNA; test: RT-PCR upregulation of SOD-1 mRNA in rat primary cortical cell cultures; assay type: cell-based; details: 10 ng/ml, 3 hours
Procedure: The RT-PCR method (see, for example, Innis et al., PCR Protocols: A Guide to Methods and Applications, (Academic Press, San Diego, 1990)) was used to investigate the upregulation of the specific mRNA that codes for the enzyme superoxide dismutase (SOD).
(§1) Primary cortical cultures were obtained by growing newborn rat brain cortical cells in Delbecco's modified Eagle medium supplemented with 25 μg/ml of gentamycin and 10% fetal calf serum. The cells were isolated from the E-21 cortex of rat brain, plated at a density of 1×10^5 per ml and grown to confluence within four to five days in an atmosphere containing air and 5% CO2 at 37° C. as described in Cornell-Bell et al., Science, 247: 470-473 (1990) and Cell Calcium, 12: 185-204 (1991). Cultures were grown in 20 ml flasks as a monolayer and then exposed to various concentrations of peptides for studies of the effects of peptides on upregulation of genes for SOD and CAT and on the transmigration of transcription factor AP-1 to cell nuclei.
Primary cultures of rat brain cortical cells were incubated with 100 ng/ml of peptide compound CMX-9236 for durations of 0 to 48 hours. mRNA was isolated from the cytoplasmic fraction of lysed cells according to standard methods (Angel et al., Cell 49:729-739, 1987). The RNA was incubated according to the RT-PCR protocol with two strands, 20 nucleotides long, one for the sense and one from the antisense strand. The sequences were selected to be unique for superoxide dismutase-1 (SOD-1), and to span one intron segment. […] The sequence of the two probe segments of the oligo dT segments for SOD are as follows: anti-sense strand, […] (SEQ ID NO:29), and sense strand, […] (SEQ ID NO:30). These span a sequence of 208 base pairs (bp) on the primary SOD sequence. The mixture was then treated with reverse transcriptase to obtain the cDNA according to standard PCR methods. The cDNA was then analyzed by electrophoresis and separated according to sequence lengths on a non-denaturing 5% polyacrylamide gel. The electrophoretically separated molecules were treated with ethidium bromide to stain double-stranded DNA fragments. These were visualized by ultraviolet illumination and photographed. The gels were then analyzed by a laser scanning fluorescence detector to quantitate the amount of messenger RNA for the extent of upregulation of SOD message and its time course of synthesis as a function of stimulation by CMX-9236. Similar methods of analysis were used for other peptides.

[4] = test system: superoxide dismutase (SOD) protein; test: Western immunoblot of SOD protein in rat brain primary cortical cultures; assay type: cell-based; details: for SOD: 5 hours at 37° C.
Procedure: as §1, with “nuclei. […]” for “nuclei.”
(§2) Tissue culture experiments were carried out using primary cultures of rat brain cortical cells as previously described above in Example 2. Primary cultures from embryonic rat brain isolated at E-21 (21 day embryos) and incubated for five hours with various doses: 1, 10, 100 ng/ml of CMX-99672. Cytoplasmic proteins were isolated and analyzed for upregulation of SOD and CAT by Western immunoblots as described above. […] The Western blot was scanned to quantify the fold-increase in SOD production in cell cultures treated with the CMX-99672 peptide compound.
Representative peptide compounds were tested at various doses and compared for their ability to upregulate expression of genes for SOD and/or CAT in rat primary cortical cultures basically as described above. Cultures were incubated with a peptide compound for 5 hours at 37° C. Cytoplasmic protein fractions were prepared as described above. Cytoplasmic proteins were separated by gel electrophoresis and analyzed by Western immunoblots using antisera to SOD and CAT, respectively (Rockland, Inc., Gilbertsville, Pa.). […]

catalase (CAT) mRNA = test: RT-PCR upregulation of catalase (CAT) mRNA in primary rat cortical cultures; assay type: cell-based; details: 10 ng/ml, 3 hours
From the text: Peptide compounds of the invention may also upregulate mRNA for catalase (CAT). Experiments using the RT-PCR methods to detect upregulation of CAT mRNA in primary rat cortical brain cultures treated with various representative peptide compounds, i.e., CMX-9236, CMX-9963, and CMX-9967. The catalase probe duplex consisted of a sense primer having the sequence […] (SEQ ID NO:31) and antisense primer having the sequence […] (SEQ ID NO:32) flanking a 95 bp region of the CAT DNA.
Primary rat brain cortical cell cultures were incubated with 100 ng/ml of the peptide compound CMX-9236 for 0, 0.5, 1, 2, 3, 6, 12, 24, and 48 hours. […] The upregulation of CAT mRNA was maximal at 3 hours after the addition of the peptide compound, and it decreased back to control levels at 48 hours. GAPDH was the internal standard in these experiments. […] A 13-fold increase in CAT mRNA levels was observed (over control) of CAT mRNA occurred when primary rat brain cortical cultures were incubated with 100 ng/ml of CMX-9236 for 3 hours.

catalase (CAT) protein = test: Western immunoblot of CAT protein in rat primary cortical cultures; assay type: cell-based; details: Dose 28 pmol/ml, 5 hours at 37° C.
Procedure: as §2
Representative peptide compounds were tested at various doses and compared for their ability to upregulate expression of genes for SOD and/or CAT in rat primary cortical cultures basically as described above. Cultures were incubated with a peptide compound for 5 hours at 37° C. Cytoplasmic protein fractions were prepared as described above. Cytoplasmic proteins were separated by gel electrophoresis and analyzed by Western immunoblots using antisera to SOD and CAT, respectively (Rockland, Inc., Gilbertsville, Pa.).

[5] = test system: middle cerebral artery (MCA) permanent occlusion stroke model; test: Permanent MCA 24-hour occlusion stroke model; assay type: in vivo, Sprague-Dawley rats; details: Dose 0.05 mg/hr

Row | maximum increase of CAT mRNA (catalase (CAT) mRNA) [fold] | Substance | activation / upregulation of AP-1 (in words) [1] | neuroprotective effect in permanent MCA assay (in words) [2] | maximum increase of SOD-1 mRNA [3] | SOD ([4]; Dose 28 pmol/ml) [% Control] | fold-increase in SOD-1 protein (intensity of antibody binding) ([4]; cells treated 5 hours with 10 and 100 ng/ml) [fold] | CAT (catalase (CAT) protein) [% Control] | Percent Neurological Rescue [5] [%] | Percent Rescue (percent decrease in infarct size vs vehicle controls) [5] [%] | SOD ([4]; Dose 6.7 pmol/ml) [% Control]
1 |  | KKETLQFR [CMX-8933, described in U.S. Pat. No. 5,545,719] | upregulated AP-1 | positive neuroprotective effect |  |  |  |  |  |  | 
2 | 6 | [Ac]-Asp Gly Asp [CMX-9967] |  |  | 6 fold | 1220 | ≥ 20 | 200 | 40 ± 10 | 20 ± 6 | 
3 | ~7 | [Ac]-Asp Gly Asp Gly Asp Phe Ala (Ac-DGDGDFA) [CMX-9963] |  |  | around 10 fold |  |  | 700 |  |  | 1873
4 |  | KKQYKLGSKTGPGQ [CMX-9901] | upregulated AP-1 | positive neuroprotective effect |  |  |  |  |  |  | 
